In brackets after ≈: the same amount, converted by molar mass. Like-named read-outs stand apart in the source and are kept apart here.
What was measured:
[1] = Kinetic aqueous solubility by CLND; assay type: physicochemical
Experimental: We had successfully used these criteria in the hit to lead stage to identify compounds for in vivo proof-of-concept studies in another program, which subsequently led to the identification of preclinical candidate DDD853651/GSK3186899 active against CRK12.[7] […] A pharmacokinetic (PK) study was thus performed, dosed at 10 mg/kg po and 3 mg/kg iv. […] With the limited knowledge of the PK/PD drivers for the treatment of VL, we considered this to be a suitable profile for the progression of 4 into a previously reported mouse efficacy model of VL,[6],[7],[17],[18] where it was dosed twice daily at 50 mg/kg ip in order to further maximize exposure and give the best chance of achieving proof-of-concept.
(§1) Intramacrophage L. donovani Assay. This assay was conducted as previously described, except for compound exposure time, which was 96 h instead of 72 h.4
(§2) Intrinsic Clearance. This assay was conducted as previously described.5 Aqueous Solubility. This assay was conducted as previously described.6
(§3) FaSSIF Solublity. This assay was conducted as previously described.5,7
(§4) In vivo Mouse Efficacy Studies. In vivo studies were carried out as previously described, with minor modifications.7 Briefly: Control drug used was Miltefosine (30 mg/kg orally, twice daily for 5 days), vehicle used was 10% (v/v) dimethyl sulfoxide (DMSO), 40% polyethylene glycol 400, and 50% deionized water (10 Ml/kg orally, twice daily for 5 days) and mice were treated with test compound intraperitoneally (50 mg/kg twice daily for 5 days). 5
(§5) All regulated procedures on living animals were carried out under the authority of a project license issued by the Home Office under the Animals (Scientific Procedures) Act 1986, as amended in 2012 (and in compliance with EU Directive EU/2010/63). Infected animals had access to food and water ad libitum and were housed under a 12 hour light/dark photoperiod. Animals used in these experiments were female NMRI and Balb/c mice (Harlan, UK).
(§6) Test compound DDD01008714 was dosed orally (P.O.) at 10 mg free base/kg (dose volume 10 mL/kg; dose vehicle: 10% (vol/vol) dimethyl sulfoxide (DMSO), 40% polyethylene glycol 400 (PEG400) and 50% deionized water) to female NMRI mice (n = 3) or intravenously (I.V.) at 3 mg free base/kg (dose volume 5 mL/kg; dose vehicle: 10% (vol/vol) dimethyl sulfoxide (DMSO) and 90% Saline) to female Balb/c mice (n = 3). Blood samples (10 μL) where taken from the tail vein of […]

[2] = FaSSIF (fasted state simulated intestinal fluid) solubility; assay type: physicochemical; details: for solubility at 4 h: pH 6.5, Table 6; for solubility: supplementary csv
Experimental: as §1, §2, §3, §4, §5, §6

[3] = Mouse liver microsomal intrinsic clearance; assay type: in vitro ADME; details: for Mouse CLi: Table 6, mouse liver microsomes; for Cli (mouse, ml/min/g): supplementary csv
Experimental: as §1, §2, §3, §4, §5, §6

THP-1 cells = assay: THP-1 host cell read-out of the INMAC assay; assay type: cell-based; details: Homo sapiens; for EC50: Table 6, read-out: THP-1 pEC50 (converted)
Experimental: (§7) Intramacrophage L. donovani Assay. This assay was conducted as previously described, except for […]

L. donovani amastigotes = assay: INMAC assay: intramacrophage L. donovani in differentiated THP-1 cells; assay type: cell-based, Leishmania donovani; details: Leishmania donovani; for EC50: THP-1, Table 6, at least three replicates, SD ≤0.4, read-out: INMAC pEC50 (converted); for IC50: THP-1, read-out: LdInMac pIC50 (converted)
Experimental: as §7

[4] = Table 6, kinetic, CLND, read-out: Aq. solubility
[5] = THP-1, supplementary csv, read-out: THP1 pIC50 (converted)
[6] = supplementary csv, read-out: Aqueous Solubility

## O=C(Nc1ccc(F)c(-c2ccn3c(-c4ccccc4)cnc3n2)c1)N1CCCC1 [Compound 28, N-(4-Fluoro-3-(3-phenylimidazo[1,2-a]pyrimidin-7-yl)phenyl)pyrrolidine-1-carboxamide]
[1]; [4]
  solubility: 39 µM (≈ 15.7 µg/mL)
[2]
  solubility at 4 h: 7 µM (≈ 2.81 µg/mL)
  solubility: 8 µM (≈ 3.21 µg/mL)
[3]
  Mouse CLi: 2.5 mL/min/g
  Cli (mouse, ml/min/g): 2.5 mL/min/g
THP-1 cells; THP-1
  EC50: 50.1 µM
THP-1 cells; [5]
  IC50: 50.1 µM
L. donovani amastigotes
  EC50: 0.251 µM

## O=C(Nc1ccc(F)c(-c2ccn3c(-c4ccccn4)cnc3n2)c1)N1CCCC1 [Compound 29, N-(4-Fluoro-3-(3-(pyridin-2-yl)imidazo[1,2-a]pyrimidin-7-yl)phenyl)pyrrolidine-1-carboxamide]
[1]; [4]
  solubility: 74 µM (≈ 29.8 µg/mL)
[2]
  solubility at 4 h: 273 µM (≈ 110 µg/mL)
  solubility: 270 µM (≈ 109 µg/mL)
[3]
  Mouse CLi: 1.8 mL/min/g
  Cli (mouse, ml/min/g): 1.8 mL/min/g
THP-1 cells; THP-1
  EC50: > 50.1 µM
THP-1 cells; [5]
  IC50: > 50.1 µM
L. donovani amastigotes
  EC50: 0.398 µM

## CC(C)c1cnc2nc(-c3cc(NC(=O)N4CCCC4)ccc3F)ccn12 [Compound 30, N-(4-Fluoro-3-(3-isopropylimidazo[1,2-a]pyrimidin-7-yl)phenyl)pyrrolidine-1-carboxamide]
[1]; [4]
  solubility: 231 µM (≈ 84.9 µg/mL)
[1]; [6]
  solubility: 240 µM (≈ 88.2 µg/mL)
[2]
  solubility at 4 h: 71 µM (≈ 26.1 µg/mL)
  solubility: 70 µM (≈ 25.7 µg/mL)
[3]
  Mouse CLi: 4.6 mL/min/g
  Cli (mouse, ml/min/g): 4.6 mL/min/g
THP-1 cells; THP-1
  EC50: 50.1 µM
THP-1 cells; [5]
  IC50: 50.1 µM
L. donovani amastigotes
  EC50: 1.26 µM

## CC(C)Cc1cnc2nc(-c3cc(NC(=O)N4CCCC4)ccc3F)ccn12 [Compound 31, N-(4-Fluoro-3-(3-isobutylimidazo[1,2-a]pyrimidin-7-yl)phenyl)pyrrolidine-1-carboxamide]
[1]; [4]
  solubility: 182 µM (≈ 69.4 µg/mL)
[1]; [6]
  solubility: 180 µM (≈ 68.7 µg/mL)
[2]
  solubility at 4 h: 178 µM (≈ 67.9 µg/mL)
  solubility: 180 µM (≈ 68.7 µg/mL)
[3]
  Mouse CLi: 15 mL/min/g
  Cli (mouse, ml/min/g): 15 mL/min/g
THP-1 cells; THP-1
  EC50: 63.1 µM
THP-1 cells; [5]
  IC50: 63.1 µM
L. donovani amastigotes
  EC50: 0.501 µM

## O=C(Nc1ccc(F)c(-c2ccn3c(CN4CCOCC4)cnc3n2)c1)N1CCCC1 [Compound 32, N-(4-Fluoro-3-(3-(morpholinomethyl)imidazo[1,2-a]pyrimidin-7-yl)phenyl)pyrrolidine-1-carboxamide]
[1]; [4]
  solubility: ≥ 348 µM
[2]
  solubility at 4 h: 728 µM (≈ 309 µg/mL)
  solubility: 730 µM (≈ 310 µg/mL)
[3]
  Mouse CLi: 16 mL/min/g
  Cli (mouse, ml/min/g): 16 mL/min/g
THP-1 cells; THP-1
  EC50: 63.1 µM
THP-1 cells; [5]
  IC50: 63.1 µM
L. donovani amastigotes
  EC50: 10 µM

## O=C(Nc1ccc(F)c(-c2ccn3c(N4CCCCC4)cnc3n2)c1)N1CCCC1 [Compound 34, N-(4-Fluoro-3-(3-(piperidin-1-yl)imidazo[1,2-a]pyrimidin-7-yl)phenyl)pyrrolidine-1-carboxamide]
[1]; [4]
  solubility: 358 µM (≈ 146 µg/mL)
[1]; [6]
  solubility: 360 µM (≈ 147 µg/mL)
[2]
  solubility at 4 h: 32 µM (≈ 13.1 µg/mL)
[3]
  Mouse CLi: 8.4 mL/min/g
  Cli (mouse, ml/min/g): 8.4 mL/min/g
THP-1 cells; THP-1
  EC50: 50.1 µM
THP-1 cells; [5]
  IC50: 50.1 µM
L. donovani amastigotes
  EC50: 0.501 µM

## O=C(Nc1ccc(F)c(-c2ccn3c(N4CCNCC4)cnc3n2)c1)N1CCCC1 [Compound 35, N-(4-Fluoro-3-(3-(piperazin-1-yl)imidazo[1,2-a]pyrimidin-7-yl)phenyl)pyrrolidine-1-carboxamide]
[1]; [4]
  solubility: ≥ 333 µM
[1]; [6]
  solubility: ≥ 330 µM
[2]
  solubility at 4 h: 5 µM (≈ 2.05 µg/mL)
[3]
  Mouse CLi: <0.5 mL/min/g
  Cli (mouse, ml/min/g): <0.5 mL/min/g
THP-1 cells; THP-1
  EC50: > 50.1 µM
THP-1 cells; [5]
  IC50: > 50.1 µM
L. donovani amastigotes
  IC50: > 50.1 µM
  EC50: > 50.1 µM

## CC(=O)N1CCN(c2cnc3nc(-c4cc(NC(=O)N5CCCC5)ccc4F)ccn23)CC1 [Compound 36, N-(3-(3-(4-Acetylpiperazin-1-yl)imidazo[1,2-a]pyrimidin-7-yl)-4-fluorophenyl)pyrrolidine-1-carboxamide]
[1]; [4]
  solubility: ≥ 381 µM
[1]; [6]
  solubility: ≥ 380 µM
[2]
  solubility at 4 h: 1310 µM (≈ 591 µg/mL)
  solubility: > 1000 µM
[3]
  Mouse CLi: 1.5 mL/min/g
  Cli (mouse, ml/min/g): 1.5 mL/min/g
THP-1 cells; THP-1
  EC50: > 50.1 µM
THP-1 cells; [5]
  IC50: > 50.1 µM
L. donovani amastigotes
  IC50: > 50.1 µM
  EC50: > 50.1 µM

## CC1CN(c2cnc3nc(-c4cc(NC(=O)N5CCCC5)ccc4F)ccn23)CCO1 (centres unmarked) [Compound 38, N-(4-Fluoro-3-(3-(2-methylmorpholino)imidazo[1,2-a]pyrimidin-7-yl)phenyl)pyrrolidine-1-carboxamide]
[1]; [4]
  solubility: 248 µM (≈ 105 µg/mL)
[1]; [6]
  solubility: 250 µM (≈ 106 µg/mL)
[2]
  solubility at 4 h: 252 µM (≈ 107 µg/mL)
  solubility: 250 µM (≈ 106 µg/mL)
[3]
  Mouse CLi: 1.7 mL/min/g
  Cli (mouse, ml/min/g): 1.7 mL/min/g
THP-1 cells; THP-1
  EC50: 50.1 µM
THP-1 cells; [5]
  IC50: 50.1 µM
L. donovani amastigotes
  EC50: 0.794 µM

## C[C@@H]1CN(c2cnc3nc(-c4cc(NC(=O)N5CCCC5)ccc4F)ccn23)C[C@H](C)O1 [Compound 41, N-(3-(3-((2S,6R)-2,6-Dimethylmorpholino)imidazo[1,2-a]pyrimidin-7-yl)-4-fluorophenyl)pyrrolidine-1-carboxamide]
[1]; [4]
  solubility: 142 µM (≈ 62.3 µg/mL)
[1]; [6]
  solubility: 170 µM (≈ 74.5 µg/mL)
[2]
  solubility at 4 h: 372 µM (≈ 163 µg/mL)
  solubility: 365 µM (≈ 160 µg/mL)
[3]
  Mouse CLi: 3.4 mL/min/g
  Cli (mouse, ml/min/g): 3.4 mL/min/g
THP-1 cells; THP-1, read-out: THP1 pIC50 (converted)
  IC50: 63.1 µM
THP-1 cells; THP-1
  EC50: 63.1 µM
L. donovani amastigotes
  EC50: 1.58 µM

## CC1(C)CN(c2cnc3nc(-c4cc(NC(=O)N5CCCC5)ccc4F)ccn23)CCO1 [Compound 42, N-(3-(3-(2,2-Dimethylmorpholino)imidazo[1,2-a]pyrimidin-7-yl)-4-fluorophenyl)pyrrolidine-1-carboxamide]
[1]; [4]
  solubility: 247 µM (≈ 108 µg/mL)
[1]; [6]
  solubility: 250 µM (≈ 110 µg/mL)
[2]
  solubility at 4 h: 1840 µM (≈ 806 µg/mL)
  solubility: > 1000 µM
[3]
  Mouse CLi: 2.9 mL/min/g
  Cli (mouse, ml/min/g): 2.9 mL/min/g
THP-1 cells; THP-1
  EC50: 25.1 µM
THP-1 cells; [5]
  IC50: 25.1 µM
L. donovani amastigotes
  EC50: 1 µM

## CC1(C)COCCN1c1cnc2nc(-c3cc(NC(=O)N4CCCC4)ccc3F)ccn12 [Compound 43, N-(3-(3-(3,3-Dimethylmorpholino)imidazo[1,2-a]pyrimidin-7-yl)-4-fluorophenyl)pyrrolidine-1-carboxamide]
[1]; [4]
  solubility: 210 µM (≈ 92.1 µg/mL)
[2]
  solubility at 4 h: 627 µM (≈ 275 µg/mL)
  solubility: 630 µM (≈ 276 µg/mL)
[3]
  Mouse CLi: 6.0 mL/min/g
  Cli (mouse, ml/min/g): 6 mL/min/g
THP-1 cells; THP-1
  EC50: 50.1 µM
THP-1 cells; [5]
  IC50: 50.1 µM
L. donovani amastigotes
  EC50: 0.794 µM

## O=C(Nc1ccc(F)c(-c2ccn3c(N4CCC5(CCOC5)C4)cnc3n2)c1)N1CCCC1 (centres unmarked) [Compound 44, N-(3-(3-(2-Oxa-7-azaspiro[4.4]nonan-7-yl)imidazo[1,2-a]pyrimidin-7-yl)-4-fluorophenyl)pyrrolidine-1-carboxamide]
[1]; [4]
  solubility: 339 µM (≈ 153 µg/mL)
[1]; [6]
  solubility: 340 µM (≈ 153 µg/mL)
[2]
  solubility at 4 h: 852 µM (≈ 384 µg/mL)
  solubility: 850 µM (≈ 383 µg/mL)
[3]
  Mouse CLi: 3.7 mL/min/g
  Cli (mouse, ml/min/g): 3.7 mL/min/g
THP-1 cells; THP-1
  EC50: 50.1 µM
THP-1 cells; [5]
  IC50: 50.1 µM
L. donovani amastigotes
  EC50: 1.26 µM

Reference: publication PMC8154566, “Scaffold-Hopping Strategy on a Series of Proteasome Inhibitors Led to a Preclinical Candidate for the Treatment of Visceral Leishmaniasis” (Journal of Medicinal Chemistry, 2021)
